Results published in PubChem BioAssay AID252 (DTP/NCI, 2004).
Values joined by “and” are separate entries in the source; they are usually repeats but may differ in a detail not shown here. Identical values can stand only once. Inconclusive results and toxic doses are left out.

System: BDF1 mice, intracerebral L1210 leukemia, survival T/C
Assay: NCI In Vivo Anticancer Drug Screen. Data for tumor model L1210 Leukemia (intracerebral) in B6D2F1 (BDF1) mice
Conditions: endpoint: mean survival time, higher = longer survival
Procedure, shortened: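 Readout is the T/C ratio: survival of compound-treated animals over that of vehicle-treated controls, in mice bearing transplantable tumour.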

[1] = dose: 2.0 mg/kg/injection, schedule: Q01DX009 (ip), vehicle: saline
[2] = dose: 24.0 mg/kg/injection, schedule: Q01DX001 (ip), vehicle: other

For `CC(=O)NC1=C(N2CC2)C(=O)C(NC(C)=O)=C(N2CC2)C1=O`, the T/C (dose: 0.12 mg/kg/injection, schedule: Q01DX009 (ip), vehicle: saline with Tween-80) was 105 % of control, the T/C (dose: 0.25 mg/kg/injection, schedule: Q01DX005 (ip), vehicle: saline with Tween-80) was 97 % of control and the T/C (dose: 0.25 mg/kg/injection, schedule: Q01DX009 (ip), vehicle: saline with Tween-80) was 105 % of control. For the same compound, the T/C (dose: 0.25 mg/kg/injection, schedule: Q01DX009 (ip), vehicle: saline) was 110 % of control and 117 % of control, the T/C (dose: 0.5 mg/kg/injection, schedule: Q01DX005 (ip), vehicle: saline with Tween-80) was 105 % of control and the T/C (dose: 0.5 mg/kg/injection, schedule: Q01DX009 (ip), vehicle: saline with Tween-80) was 108 % of control. The T/C (dose: 0.5 mg/kg/injection, schedule: Q01DX Z (ip), vehicle: carboxymethylcellulose (CMC)) was 113 % of control, the T/C (dose: 1.0 mg/kg/injection, schedule: Q01DX005 (ip), vehicle: saline with Tween-80) was 111 % of control and the T/C (dose: 2.0 mg/kg/injection, schedule: Q01DX005 (ip), vehicle: saline with Tween-80) was 115 % of control. For the same compound, the T/C [1] was 96 % of control and 98 % of control and the T/C (dose: 2.0 mg/kg/injection, schedule: Q01DX Z (ip), vehicle: carboxymethylcellulose (CMC)) was 119 % of control.
With `S=C=NCCc1ccccc1` the T/C (dose: 12.5 mg/kg/injection, schedule: Q01DX009 (ip), vehicle: saline with Tween-80) was 343 % of control, the T/C (dose: 25.0 mg/kg/injection, schedule: Q01DX009 (ip), vehicle: saline with Tween-80) was 93 % of control and the T/C (dose: 50.0 mg/kg/injection, schedule: Q01DX009 (ip), vehicle: saline with Tween-80) was 95 % of control.
In the case of `O=c1[nH]cc(N(CCCl)CCCl)c(=O)[nH]1`, the T/C (dose: 0.75 mg/kg/injection, schedule: Q01DX015 (ip), vehicle: carboxymethylcellulose (CMC)) is reported as 114 % of control, the T/C (dose: 1.1 mg/kg/injection, schedule: Q01DX015 (ip), vehicle: carboxymethylcellulose (CMC)) is reported as 123 % of control and the T/C (dose: 1.5 mg/kg/injection, schedule: Q01DX001 (ip), vehicle: carboxymethylcellulose (CMC)) is reported as 106 % of control. The T/C (dose: 2.4 mg/kg/injection, schedule: Q01DX001 (ip), vehicle: carboxymethylcellulose (CMC)) was 111 % of control and the T/C (dose: 3.6 mg/kg/injection, schedule: Q01DX001 (ip), vehicle: carboxymethylcellulose (CMC)) was 102 % of control.
In the case of `CNC(=N)c1ccc(NC(=N)c2ccc(NC(=O)Nc3cccc(NC(=O)Nc4ccc(C(=N)Nc5ccc(C(=N)NC)cc5)cc4)c3)cc2)cc1`, the T/C (dose: 50.0 mg/kg/injection, schedule: Q01DX001 (ip), vehicle: water) is reported as 106 % of control and the T/C (dose: 75.0 mg/kg/injection, schedule: Q01DX001 (ip), vehicle: water) is reported as 109 % of control.
`NCCCCS(=O)(=O)Nc1ccc(Nc2c3ccccc3nc3cc([N+](=O)[O-])ccc23)cc1` was tested, and the T/C (dose: 25.0 mg/kg/injection, schedule: Q01DX009 (ip), vehicle: saline) was 97 % of control and the T/C (dose: 50.0 mg/kg/injection, schedule: Q01DX009 (ip), vehicle: saline) was 99 % of control.
With `O=C(Nc1ccc(C2=NCCN2)cc1)c1ccc(C(=O)Nc2ccc(C3=NCCN3)cc2)c(Cl)c1` the T/C (dose: 12.0 mg/kg/injection, schedule: Q01DX015 (ip), vehicle: carboxymethylcellulose (CMC)) was 112 % of control, the T/C (dose: 12.5 mg/kg/injection, schedule: Q01DX Z (ip), vehicle: carboxymethylcellulose (CMC)) was 114 % of control and the T/C (dose: 18.0 mg/kg/injection, schedule: Q01DX015 (ip), vehicle: carboxymethylcellulose (CMC)) was 120 % of control. The T/C (dose: 25.0 mg/kg/injection, schedule: Q01DX Z (ip), vehicle: carboxymethylcellulose (CMC)) was 108 % of control, the T/C (dose: 27.0 mg/kg/injection, schedule: Q01DX015 (ip), vehicle: carboxymethylcellulose (CMC)) was 118 % of control and the T/C (dose: 37.5 mg/kg/injection, schedule: Q01DX Z (ip), vehicle: carboxymethylcellulose (CMC)) was 102 % of control. For the same compound, the T/C (dose: 48.0 mg/kg/injection, schedule: Q01DX001 (ip), vehicle: carboxymethylcellulose (CMC)) was 98 % of control, the T/C (dose: 48.4 mg/kg/injection, schedule: Q01DX001 (ip), vehicle: carboxymethylcellulose (CMC)) was 102 % of control and the T/C (dose: 50.0 mg/kg/injection, schedule: Q01DX Z (ip), vehicle: carboxymethylcellulose (CMC)) was 96 % of control. The T/C (dose: 74.0 mg/kg/injection, schedule: Q01DX001 (ip), vehicle: carboxymethylcellulose (CMC)) was 107 % of control and 100 % of control.
`OCCN1CCN(CCCN2c3ccccc3Sc3ccc(C(F)(F)F)cc32)CC1` was tested, and the T/C (dose: 12.5 mg/kg/injection, schedule: Q04DX003 (ip), vehicle: saline) was 102 % of control, the T/C (dose: 25.0 mg/kg/injection, schedule: Q04DX003 (ip), vehicle: saline) was 106 % of control and the T/C (dose: 50.0 mg/kg/injection, schedule: Q04DX003 (ip), vehicle: saline) was 112 % of control. For the same compound, the T/C (dose: 100.0 mg/kg/injection, schedule: Q04DX003 (ip), vehicle: saline) was 94 % of control.
`CN(Cc1cnc2nc(N[Si](C)(C)C)nc(N[Si](C)(C)C)c2n1)c1ccc(C(=O)NC(CCC(=O)O[Si](C)(C)C)C(=O)O[Si](C)(C)C)cc1` (stereo unspecified) was tested, and the T/C (dose: 1.0 mg/kg/injection, schedule: Q01DX009 (ip), vehicle: Klucel (hydroxypropylcellulose) (HPC)) was 118 % of control, the T/C [1] was 173 % of control and the T/C (dose: 4.0 mg/kg/injection, schedule: Q01DX009 (ip), vehicle: Klucel (hydroxypropylcellulose) (HPC)) was 110 % of control. For the same compound, the T/C (dose: 4.0 mg/kg/injection, schedule: Q01DX009 (ip), vehicle: saline) was 93 % of control.
With `CC(=O)OC1CCC(NC(=O)N(CCF)N=O)CC1` (stereo unspecified) the T/C [2] was 276 % of control, the T/C (dose: 32.0 mg/kg/injection, schedule: Q01DX001 (oral), vehicle: other) was 516 % of control and the T/C (dose: 36.0 mg/kg/injection, schedule: Q01DX001 (ip), vehicle: other) was 509 % of control.
With `O=NN(CCF)C(=O)NC1CCS(=O)(=O)CC1` the T/C (dose: 2.5 mg/kg/injection, schedule: Q01DX001 (ip), vehicle: other) was 111 % of control, the T/C (dose: 2.9 mg/kg/injection, schedule: Q01DX001 (ip), vehicle: other) was 108 % of control and 114 % of control and the T/C (dose: 3.75 mg/kg/injection, schedule: Q01DX001 (ip), vehicle: other) was 118 % of control. The T/C (dose: 4.8 mg/kg/injection, schedule: Q01DX001 (oral), vehicle: other) was 181 % of control, the T/C (dose: 5.0 mg/kg/injection, schedule: Q01DX001 (ip), vehicle: other) was 124 % of control and the T/C (dose: 6.0 mg/kg/injection, schedule: Q01DX001 (ip), vehicle: other) was 121 % of control. For the same compound, the T/C (dose: 7.0 mg/kg/injection, schedule: Q01DX001 (ip), vehicle: other) was 165 % of control, the T/C (dose: 7.5 mg/kg/injection, schedule: Q01DX001 (ip), vehicle: other) was 163 % of control and the T/C (dose: 10.0 mg/kg/injection, schedule: Q01DX001 (ip), vehicle: other) was 183 % of control. The T/C (dose: 11.0 mg/kg/injection, schedule: Q01DX001 (ip), vehicle: other) was 191 % of control, the T/C (dose: 11.0 mg/kg/injection, schedule: Q01DX001 (oral), vehicle: other) was 200 % of control and 315 % of control and the T/C (dose: 12.0 mg/kg/injection, schedule: Q01DX001 (ip), vehicle: other) was 150 % of control and 214 % of control. For the same compound, the T/C (dose: 15.0 mg/kg/injection, schedule: Q01DX001 (ip), vehicle: other) was 202 % of control, the T/C (dose: 16.0 mg/kg/injection, schedule: Q01DX001 (ip), vehicle: other) was 284 % of control and the T/C (dose: 20.0 mg/kg/injection, schedule: Q01DX001 (ip), vehicle: other) was 322 % of control. The T/C (dose: 21.0 mg/kg/injection, schedule: Q01DX001 (oral), vehicle: other) was 477 % of control and 662 % of control, the T/C [2] was 341 % of control and 410 % of control and 463 % of control and the T/C (dose: 30.0 mg/kg/injection, schedule: Q01DX001 (ip), vehicle: other) was 348 % of control. The T/C (dose: 40.0 mg/kg/injection, schedule: Q01DX001 (ip), vehicle: other) was 305 % of control, the T/C (dose: 40.0 mg/kg/injection, schedule: Q01DX001 (oral), vehicle: other) was 456 % of control and 486 % of control and the T/C (dose: 48.0 mg/kg/injection, schedule: Q01DX001 (ip), vehicle: other) was 354 % of control. For the same compound, the T/C (dose: 80.0 mg/kg/injection, schedule: Q01DX001 (oral), vehicle: other) was 86 % of control.
`C[C@@H]1C[C@@H]([C@H](O)CC2CC(=O)NC(=O)C2)C(=O)[C@@H](C)C1` was tested, and the T/C (dose: 16.0 mg/kg/injection, schedule: Q01DX015 (ip), vehicle: saline) was 121 % of control, the T/C (dose: 24.0 mg/kg/injection, schedule: Q01DX015 (ip), vehicle: saline) was 120 % of control and the T/C (dose: 36.0 mg/kg/injection, schedule: Q01DX015 (ip), vehicle: saline) was 116 % of control. For the same compound, the T/C (dose: 44.0 mg/kg/injection, schedule: Q01DX001 (ip), vehicle: saline) was 98 % of control, the T/C (dose: 67.0 mg/kg/injection, schedule: Q01DX001 (ip), vehicle: saline) was 104 % of control and the T/C (dose: 100.0 mg/kg/injection, schedule: Q01DX001 (ip), vehicle: saline) was 103 % of control.
In the case of `O=NN(CCCl)C(=O)NC1CCC(C(=O)O)CC1` (stereo unspecified), the T/C (dose: 8.0 mg/kg/injection, schedule: Q01DX001 (ip), vehicle: saline with Tween-80) is reported as 165 % of control, the T/C (dose: 26.0 mg/kg/injection, schedule: Q01DX001 (ip), vehicle: saline with Tween-80) is reported as 181 % of control and 206 % of control and the T/C (dose: 40.0 mg/kg/injection, schedule: Q01DX001 (ip), vehicle: saline with Tween-80) is reported as 185 % of control and 212 % of control. The T/C (dose: 60.0 mg/kg/injection, schedule: Q01DX001 (ip), vehicle: saline with Tween-80) was 204 % of control.
